In US12606568B2, “SMARCA degraders and uses thereof” (Kymera Therapeutics, Inc., priority 2020, dated 2026):

Assays:
Type in all cases: cell-based
SMARCA4 = molecular target: T1, SMARCA4 (Homo sapiens, UniProt P51532); experiment: SMARCA4 Western blot MV4-11 degradation; conditions: for Dmax: MV4-11, MV4-11 cells, read-out: SMARCA4 MSD MV411 degradation 24 h: average Dmax %; for Dmax / DC50: 24 h; for DC50 / SMARCA4 MSD MV411 degradation 24 h: average Dmax %: MV4-11 cells; for DC50: read-out: SMARCA4 MSD MV411 degradation 24 h: Mean external-Abs DC50
T1 construct: SMARCA2 and SMARCA4 protein degradation in MV4-11 cells; endogenous in cells; host or cells: MV4-11
T1 sequence (P51532 whole entry): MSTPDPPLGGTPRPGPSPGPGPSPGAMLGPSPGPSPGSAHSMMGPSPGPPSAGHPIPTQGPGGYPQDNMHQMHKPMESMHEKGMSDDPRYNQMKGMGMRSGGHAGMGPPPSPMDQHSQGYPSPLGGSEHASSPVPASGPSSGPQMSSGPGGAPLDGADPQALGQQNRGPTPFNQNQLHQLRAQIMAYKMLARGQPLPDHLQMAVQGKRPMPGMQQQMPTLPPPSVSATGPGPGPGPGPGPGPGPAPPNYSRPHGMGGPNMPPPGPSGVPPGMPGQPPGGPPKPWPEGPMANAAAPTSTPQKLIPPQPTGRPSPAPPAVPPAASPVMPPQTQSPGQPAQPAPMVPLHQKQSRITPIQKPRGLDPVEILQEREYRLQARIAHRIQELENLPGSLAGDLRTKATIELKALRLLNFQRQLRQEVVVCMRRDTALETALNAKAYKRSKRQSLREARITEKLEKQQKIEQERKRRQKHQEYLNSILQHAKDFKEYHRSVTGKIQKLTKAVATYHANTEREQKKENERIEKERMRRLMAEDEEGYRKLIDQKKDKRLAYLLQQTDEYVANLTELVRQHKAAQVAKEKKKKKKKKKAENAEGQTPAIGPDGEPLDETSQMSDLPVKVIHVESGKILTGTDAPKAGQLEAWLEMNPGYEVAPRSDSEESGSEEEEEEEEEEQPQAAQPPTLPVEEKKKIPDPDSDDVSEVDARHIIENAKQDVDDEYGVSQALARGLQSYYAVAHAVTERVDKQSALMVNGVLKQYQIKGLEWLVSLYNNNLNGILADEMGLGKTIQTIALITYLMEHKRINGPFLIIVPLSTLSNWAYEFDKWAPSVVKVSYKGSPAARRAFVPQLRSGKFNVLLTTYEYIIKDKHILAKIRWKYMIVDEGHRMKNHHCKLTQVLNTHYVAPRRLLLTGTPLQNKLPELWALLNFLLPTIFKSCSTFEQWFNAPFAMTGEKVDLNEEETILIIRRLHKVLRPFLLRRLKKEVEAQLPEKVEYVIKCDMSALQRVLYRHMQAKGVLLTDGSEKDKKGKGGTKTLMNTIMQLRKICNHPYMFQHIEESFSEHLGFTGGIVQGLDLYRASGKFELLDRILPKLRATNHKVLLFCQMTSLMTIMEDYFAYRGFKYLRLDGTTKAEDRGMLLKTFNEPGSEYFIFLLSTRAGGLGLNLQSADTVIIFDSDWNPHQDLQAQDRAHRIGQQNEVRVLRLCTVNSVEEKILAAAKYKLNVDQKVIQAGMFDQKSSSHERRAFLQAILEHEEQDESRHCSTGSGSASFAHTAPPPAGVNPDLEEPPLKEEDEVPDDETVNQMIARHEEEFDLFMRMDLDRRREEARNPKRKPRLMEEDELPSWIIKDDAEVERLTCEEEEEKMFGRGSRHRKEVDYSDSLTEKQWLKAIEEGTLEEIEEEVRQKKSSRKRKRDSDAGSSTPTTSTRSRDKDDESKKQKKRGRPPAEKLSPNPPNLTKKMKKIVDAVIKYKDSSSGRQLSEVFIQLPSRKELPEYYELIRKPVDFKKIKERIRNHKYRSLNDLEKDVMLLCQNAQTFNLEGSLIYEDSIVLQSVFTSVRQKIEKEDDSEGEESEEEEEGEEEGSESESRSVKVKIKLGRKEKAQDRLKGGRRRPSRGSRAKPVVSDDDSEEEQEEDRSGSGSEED

SMARCA2 [1] = molecular target: T2, SMARCA2 (Homo sapiens, UniProt P51531); experiment: MSD SMARCA2 degradation in A549 cell line; design: endogenous in cells; conditions: for Dmax: A549, A549 cells; for Dmax / DC50: 24 h; for DC50 / SMARCA2 MSD A549 degradation 24 h: Average Dmax %: A549 cells; for DC50: read-out: SMARCA2 MSD A549 degradation 24 h: Average external-Abs DC50
T2 sequence (P51531 whole entry): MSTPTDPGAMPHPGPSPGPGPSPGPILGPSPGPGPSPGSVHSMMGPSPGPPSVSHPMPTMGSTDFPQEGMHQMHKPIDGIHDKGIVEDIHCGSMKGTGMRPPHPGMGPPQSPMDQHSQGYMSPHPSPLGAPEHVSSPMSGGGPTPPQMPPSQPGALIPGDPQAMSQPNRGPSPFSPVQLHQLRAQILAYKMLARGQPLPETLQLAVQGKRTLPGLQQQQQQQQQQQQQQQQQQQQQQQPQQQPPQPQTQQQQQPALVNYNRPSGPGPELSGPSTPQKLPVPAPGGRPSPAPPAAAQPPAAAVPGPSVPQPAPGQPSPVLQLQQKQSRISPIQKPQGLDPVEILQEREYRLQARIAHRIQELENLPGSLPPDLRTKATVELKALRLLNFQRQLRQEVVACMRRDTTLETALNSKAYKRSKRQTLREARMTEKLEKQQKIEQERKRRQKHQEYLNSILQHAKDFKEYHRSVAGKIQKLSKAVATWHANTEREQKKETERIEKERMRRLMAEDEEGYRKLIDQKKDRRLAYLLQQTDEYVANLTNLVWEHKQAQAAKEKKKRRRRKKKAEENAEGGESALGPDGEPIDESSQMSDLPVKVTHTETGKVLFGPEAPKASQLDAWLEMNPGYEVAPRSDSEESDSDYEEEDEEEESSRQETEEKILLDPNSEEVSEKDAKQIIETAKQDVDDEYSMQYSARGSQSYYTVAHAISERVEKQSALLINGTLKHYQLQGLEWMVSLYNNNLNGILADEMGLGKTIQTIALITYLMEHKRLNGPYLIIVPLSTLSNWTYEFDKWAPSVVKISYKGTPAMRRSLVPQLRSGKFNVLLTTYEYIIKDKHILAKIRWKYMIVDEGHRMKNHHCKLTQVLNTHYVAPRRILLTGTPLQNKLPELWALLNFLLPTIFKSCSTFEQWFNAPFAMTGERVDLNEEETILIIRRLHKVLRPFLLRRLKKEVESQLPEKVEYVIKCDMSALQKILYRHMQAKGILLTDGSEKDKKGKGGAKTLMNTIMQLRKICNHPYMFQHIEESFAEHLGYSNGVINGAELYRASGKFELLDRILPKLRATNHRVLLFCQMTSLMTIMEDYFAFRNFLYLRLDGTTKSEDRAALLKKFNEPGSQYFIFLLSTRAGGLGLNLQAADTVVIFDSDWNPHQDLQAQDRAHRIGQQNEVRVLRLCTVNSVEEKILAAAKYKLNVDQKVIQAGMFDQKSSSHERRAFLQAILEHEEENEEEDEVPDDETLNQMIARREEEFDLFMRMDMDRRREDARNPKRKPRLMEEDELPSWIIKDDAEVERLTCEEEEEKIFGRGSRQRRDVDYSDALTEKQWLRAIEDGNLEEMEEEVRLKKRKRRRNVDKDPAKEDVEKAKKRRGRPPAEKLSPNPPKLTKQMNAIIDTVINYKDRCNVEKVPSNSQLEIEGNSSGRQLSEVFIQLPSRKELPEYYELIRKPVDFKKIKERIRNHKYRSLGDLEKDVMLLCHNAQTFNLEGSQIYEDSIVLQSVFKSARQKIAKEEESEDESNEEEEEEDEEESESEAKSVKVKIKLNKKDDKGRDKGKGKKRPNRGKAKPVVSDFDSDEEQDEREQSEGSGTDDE
Summary of the method: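 A549 cells treated 24 h with compound, 3-fold series 1000 nM down to 0.152 nM plus DMSO. RIPA lysates captured on MSD plates, probed with rabbit anti-SMARCA2/BRM (1 µg/ml) then SULFO-TAG anti-rabbit, electrochemiluminescence read. DC50 and 24 h Dmax reported as letter bins.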

SMARCA2 [2] = molecular target: T2, SMARCA2; experiment: SMARCA2 Western blot MV4-11 degradation; design: SMARCA2 and SMARCA4 protein degradation in MV4-11 cells; endogenous in cells; host or cells: MV4-11; conditions: for Dmax: MV4-11, MV4-11 cells, read-out: SMARCA2 MSD MV411 degradation 24 h: average Dmax %; for Dmax / DC50: 24 h; for DC50 / SMARCA2 MSD MV411 degradation 24 h: average Dmax %: MV4-11 cells; for DC50: read-out: SMARCA2 MSD MV411 degradation 24 h: Mean external-Abs DC50

SMILES	Dmax (SMARCA4) [%]	DC50 (SMARCA4) [nM]	Dmax (SMARCA2 [1]) [%]	DC50 (SMARCA2 [1]) [nM]	Dmax (SMARCA2 [2]) [%]	DC50 (SMARCA2 [2]) [nM]	SMARCA4 MSD MV411 degradation 24 h: average Dmax % (SMARCA4)	SMARCA2 MSD A549 degradation 24 h: Average Dmax % (SMARCA2 [1])	SMARCA2 MSD MV411 degradation 24 h: average Dmax % (SMARCA2 [2])
Cc1ncsc1-c1cnc(CNC(=O)[C@@H]2C[C@@H](O)CN2C(=O)[C@@H](NC(=O)[C@H]2CC3(C2)C[C@H](N2CCC(c4ccc(N5C6CCC5CN(c5cc(-c7ccccc7O)nnc5N)C6)cc4)CC2)C3)C(C)(C)C)nc1 (stereo partly drawn) [I-25, (2S,4R)-1-((2S)-2-(6-(4-(4-(3-(3-amino-6-(2-hydroxyphenyl)pyridazin-4-yl)-3,8-diazabicyclo [3.2.1]octan-8-yl)phenyl)piperidin-1-yl)spiro[3.3]heptane-2-carboxamido)-3,3-dimethylbutanoyl)-4-hydroxy-N-((5-(4-methylthiazol-5-yl)pyrimidin-2-yl)methyl)pyrrolidine-2-carboxamide]	< 50	> 1000	< 50	> 1000	< 50	> 1000	–	–	–
Cc1ncsc1-c1ccc([C@H](C)NC(=O)[C@@H]2C[C@@H](O)CN2C(=O)[C@@H](NC(=O)[C@H]2CC3(C2)C[C@H](N2CCC(c4cnc(N5C6CCC5CN(c5cc(-c7ccccc7O)nnc5N)C6)nc4)CC2)C3)C(C)(C)C)cc1 (single isomer, unassigned) [I-1]	70 to 90	< 100	> 90	100 to 500	70 to 90	< 100	–	–	–
Cc1ncsc1-c1ccc([C@H](C)NC(=O)[C@@H]2C[C@@H](O)CN2C(=O)[C@@H](NC(=O)[C@H]2CCC3(CC2)C[C@H](N2CCC(c4cnc(N5C6CCC5CN(c5cc(-c7ccccc7O)nnc5N)C6)nc4)CC2)C3)C(C)(C)C)cc1 (stereo partly drawn) [I-16, (2S,4R)-1-((2S)-2-(2-(4-(2-(3-(3-amino-6-(2-hydroxyphenyl)pyridazin-4-yl)-3,8-diazabicyclo[3.2.1]octan-8-yl)pyrimidin-5-yl)piperidin-1-yl)spiro[3.5]nonane-7-carboxamido)-3,3-dimethylbutanoyl)-4-hydroxy-N—((S)-1-(4-(4-methylthiazol-5-yl)phenyl)ethyl)pyrrolidine-2-carboxamide]	–	< 100	–	100 to 500	–	< 100	B (B (>70-90% degradation))	A (A (>90% o degradation))	A (A (>90% degradation))
Cc1ncsc1-c1cnc(CNC(=O)[C@@H]2C[C@@H](O)CN2C(=O)[C@@H](NC(=O)[C@H]2CC3(C2)C[C@H](N2CCC(c4ccc(N5C6CCC5CN(c5cc(-c7ccccc7O)nnc5N)C6)cc4)CC2)C3)C(C)(C)C)cn1 (stereo partly drawn) [I-29, (2S,4R)-1-((2S)-2-(6-(4-(4-(3-(3-amino-6-(2-hydroxyphenyl)pyridazin-4-yl)-3,8-diazabicyclo[3.2.1]octan-8-yl)phenyl)piperidin-1-yl)spiro[3.3]heptane-2-carboxamido)-3,3-dimethylbutanoyl)-4-hydroxy-N-((5-(4-methylthiazol-5-yl)pyrazin-2-yl)methyl)pyrrolidine-2-carboxamide]	50 to 70	> 1000	< 50	> 1000	< 50	> 1000	–	–	–
Cc1ncsc1-c1ccc(CNC(=O)[C@@H]2C[C@@H](O)CN2C(=O)[C@@H](NC(=O)C2CC3(C2)CN(C2CCC(c4cnc(N5C6CCC5CN(c5cc(-c7ccccc7O)nnc5N)C6)nc4)CC2)C3)C(C)(C)C)cc1 (stereo partly drawn) [I-7, 2-(4-(2-(3-(3-amino-6-(2-hydroxyphenyl)pyridazin-4-yl)-3,8-diazabicyclo[3.2.1]octan-8-yl)pyrimidin-5-yl)cyclohexyl)-N—((S)-1-((2S,4R)-4-hydroxy-2-((4-(4-methylthiazol-5-yl)benzyl)carbamoyl)pyrrolidin-1-yl)-3,3-dimethyl-1-oxobutan-2-yl)-2-azaspiro[3.3]heptane-6-carboxamide]	< 50	> 1000	70 to 90	501 to 1000	70 to 90	< 100	–	–	–
Cc1ncsc1-c1ccc(CNC(=O)[C@@H]2C[C@@H](O)CN2C(=O)[C@@H](NC(=O)[C@H]2CC3(C2)C[C@H](N2CCC(c4ccc(N5C6CCC5CN(c5cc(-c7ccccc7O)nnc5N)C6)cc4)CC2)C3)C(C)(C)C)nc1 (stereo partly drawn) [I-24, (2S,4R)-1-((2S)-2-(6-(4-(4-(3-(3-amino-6-(2-hydroxyphenyl)pyridazin-4-yl)-3,8-diazabicyclo[3.2.1]octan-8-yl)phenyl)piperidin-1-yl)spiro[3.3]heptane-2-carboxamido)-3,3-dimethylbutanoyl)-4-hydroxy-N-((5-(4-methylthiazol-5-yl)pyridin-2-yl)methyl)pyrrolidine-2-carboxamide]	–	> 1000	–	> 1000	–	100 to 500	–	–	–
Cc1ncsc1-c1ccc(CNC(=O)[C@@H]2C[C@@H](O)CN2C(=O)[C@@H](NC(=O)N2CCC(N3CCC(c4cnc(N5C6CCC5CN(c5cc(-c7ccccc7O)nnc5N)C6)nc4)CC3)CC2)C(C)(C)C)cc1 [I-59, 4-(2-(3-(3-amino-6-(2-hydroxyphenyl)pyridazin-4-yl)-3,8-diazabicyclo[3.2.1]octan-8-yl)pyrimidin-5-yl)-N—((S)-1-((2S,4R)-4-hydroxy-2-((4-(4-methylthiazol-5-yl)benzyl)carbamoyl)pyrrolidin-1-yl)-3,3-dimethyl-1-oxobutan-2-yl)-[1,4′-bipiperidine]-1′-carboxamide]	< 50	> 1000	< 50	> 1000	< 50	501 to 1000	–	–	–
Cc1ncsc1-c1ccc([C@H](C)NC(=O)[C@@H]2C[C@@H](O)CN2C(=O)[C@@H](NC(=O)[C@H]2CCC3(CC2)C[C@H](N2CCC(c4cnc(N5C6CCC5CN(c5cc(-c7ccccc7O)nnc5N)C6)nc4)CC2)C3)C(C)(C)C)cc1 (stereo in doubt) [I-15, (2S,4S)-1-((2S)-2-(2-(4-(2-(3-(3-amino-6-(2-hydroxyphenyl)pyridazin-4-yl)-3,8-diazabicyclo[3.2.1]octan-8-yl)pyrimidin-5-yl)piperidin-1-yl)spiro[3.5]nonane-7-carboxamido)-3,3-dimethylbutanoyl)-4-hydroxy-N—((S)-1-(4-(4-methylthiazol-5-yl)phenyl)ethyl)pyrrolidine-2-carboxamide]	50 to 70	> 1000	> 90	100 to 500	> 90	< 100	–	–	–
Cc1ncsc1-c1ccc([C@H](C)NC(=O)[C@@H]2C[C@@H](O)CN2C(=O)[C@@H](NC(=O)[C@H]2CC3(C2)C[C@H](N2CCC(c4ccc(N5C6CCC5CN(c5cc(-c7ccccc7O)nnc5N)C6)cc4)CC2)C3)C(C)(C)C)cn1 (single isomer, unassigned) [I-5]	–	> 1000	< 50	> 1000	< 50	100 to 500	D (D (<50% degradation))	–	–
Cn1nccc1-c1ccc(CNC(=O)[C@@H]2C[C@@H](O)CN2C(=O)[C@@H](NC(=O)[C@H]2CC[C@H](c3cnc(N4C5CCC4CN(c4cc(-c6ccccc6O)nnc4N)C5)nc3)CC2)C(C)(C)C)cc1 [I-68, (2S,4R)-1-((2S)-2-((1r,4S)-4-(2-(3-(3-amino-6-(2-hydroxyphenyl)pyridazin-4-yl)-3,8-diazabicyclo[3.2.1]octan-8-yl)pyrimidin-5-yl)cyclohexanecarboxamido)-3,3-dime-thylbutanoyl)-4-hydroxy-N-(4-(1-methyl-1H-pyrazol-5-yl)benzyl)pyrrolidine-2-carboxamide]	> 90	< 100	> 90	< 100	> 90	< 100	–	–	–
Cc1ncsc1-c1ccc(CNC(=O)[C@@H]2C[C@@H](O)CN2C(=O)[C@@H](NC(=O)[C@H]2CC3(C2)C[C@H](N2CCN(c4cnc(N5C6CCC5CN(c5cc(-c7ccccc7O)nnc5N)C6)nc4)CC2)C3)C(C)(C)C)cc1 (single isomer, unassigned) [I-9]	–	> 1000	–	100 to 500	–	< 100	D (D (<50% degradation))	B (B (>70-90% o degradation))	B (B (>70-90% degradation))
Cc1ncsc1-c1ccc(CNC(=O)[C@@H]2C[C@@H](O)CN2C(=O)[C@@H](NC(=O)C2CC3(C2)CN(C2CCN(c4cnc(N5C6CCC5CN(c5cc(-c7ccccc7O)nnc5N)C6)nc4)CC2)C3)C(C)(C)C)cc1 [I-10, 2-(1-(2-(3-(3-amino-6-(2-hydroxyphenyl)pyridazin-4-yl)-3,8-diazabicyclo[3.2.1]octan-8-yl)pyrimidin-5-yl)piperidin-4-yl)-N—((S)-1-((2S,4R)-4-hydroxy-2-((4-(4-methylthiazol-5-yl)benzyl)carbamoyl)pyrrolidin-1-yl)-3,3-dimethyl-1-oxobutan-2-yl)-2-azaspiro[3.3]heptane-6-carboxamide]	< 50	> 1000	70 to 90	501 to 1000	70 to 90	< 100	–	–	–
